Experiments:
[1] = test system: platelet aggregation induced by ADP; experiment: Platelet aggregation inhibitory activity in vivo (Born aggregometer), ADP-induced; parameters: species or system New Zealand rabbits; details: Oryctolagus cuniculus, Platelet, ip, dose for 50% inhibition of ADP-induced aggregation curve; rabbits, intraperitoneal, blood 2, 4 and 6 hours after injection; read-out: platelet antiaggregant activity (AAP), DI50, ADP
Procedure: (§1) Determination of the platelet aggregation inhibitory activity in vivo
(§2) The activity of the above described compounds as platelet antiaggregant was tested in vivo on rabbits, by the Born aggregometer. The inhibition of the aggregation curve induced by ADP and thrombin was assessed with different drug concentrations according to the platelet reactivity. New Zealand rabbits which had been held fasting for 12 hours with water ad libitum, were anaesthetized with Nembutal in a dose of 35 mg/kg intramuscolarly. The blood was withdrawn from the carotidal arthery, before (control) and 2, 4, and 6 hours after the intraperitoneal injection of the compounds under examination (at the dose indicated below). The blood samples were taken up in a 3.8% aqueous solution of sodium citrate in a ratio 10:1 and thereupon centrifuged at 1500 r.p.m. for 10 minutes, for obtaining a PRP (platelet rich plasma). A portion of such a plasma was thereupon centrifuged at 8000 r.p.m. for 10 minutes, for obtaining a PPP (platelet lean plasma) which was used for zeroing the measuring apparatus.
(§3) From the results of said experiments, there was determined the dose of each product in mg/kg body weight able to induce a 50% inhibition of the aggregation curve (DI50) after treatment, referred to the curve obtained by the same control plasma before treatment.
(§4) In tables I and II are further indicated for each compound the method of preparation; the melting point PF in °C; the platelet antiaggregant activity (AAP) expressed in terms of DI50 in mg/kg, referred to ADP and thrombin respectively; the antithrombin activity (AT) in %; the anticoagulant activity (AC) in %; the fibrinolytic activity (FL) in %; the acute toxicity (LD50) in mice, intraperitoneally, in mg/kg, as previously defined.

[2] = test system: CaCl2-induced plasma coagulation; experiment: Anticoagulant activity on PRP, Hartert's thromboelastograph; format: in vivo, New Zealand rabbits; details: Oryctolagus cuniculus, ip, percent increase of total time for coagulum formation (r+k) vs before treatment; 25 mg/kg intraperitoneal, rabbits; read-out: anticoagulant activity (AC)
Procedure: Determination of the anticoagulant activity
The anticoagulant activity was also assessed on PRP of animals treated as described in the preceding methods, by using again Hartert's thromboelastograph method.
The plasma coagulation was induced by adding to 0.25 ml PRP a 1.29% solution of CaCl2.
The anticoagulant effect was determined as a percent increase of the total time for the coagulum formation (the index r+k can be obtained from the thromboelastograph diagram) in a plasma after treatment, referred to the same index obtained before the treatment (control). Again the dose level was 25 mg/kg for each compound under examination, intraperitoneally.
as §4

[3] = test system: thrombin-induced coagulation of platelet rich plasma; experiment: Antithrombin activity on PRP, Hartert's thromboelastograph; format: in vivo, New Zealand rabbits; details: Oryctolagus cuniculus, Platelet, ip, percent decrease of index ma/[r+k] vs before treatment; 20 mg/kg intraperitoneal, rabbits
Procedure: Determination of the antithrombin activity
The antithrombin activity on the PRP (platelet rich plasma) obtained following the above described method was assessed by Hartert's thromboelastograph (Hellige model). The coagulation was induced by adding to 0.25 ml of plasma 0.06 ml of a thrombin solution (Roche Topostasin® per os) at 60 units*, pH 7.4**. The antithrombin activity was assessed in terms of a percent decrease of the index (ma/[r+k]) which was calculated from the thromboelastograph diagram, wherein r is the reaction time, k is the speed of the coagulum formation and ma is the maximum spread of the tong, after an intraperitoneal treatment with a dose of 20 mg/kg of each compound under examination, referred to the same index obtained before the treatment (control).
as §4

[4] = Acute toxicity, intraperitoneal; details: mouse, in vivo, ip, male Swiss mice, intraperitoneal, 7 days observation; preliminary, by graphic interpolation; read-out: acute toxicity (LD50 / DL50)
Procedure: The acute toxicity limit was determined intraperitoneally on male Swiss mice, weighing 20±2 g, held fasting for 18 hours with water ad libitum.
The animals were maintained under observation for 7 days of treatment, by examining the general symptomatology and noting the death sequency. The preliminary DL50 in mg/kg body weight was calculated by graphic interpolation of the results as obtained.
as §4

[5] = test system: blood coagulum; experiment: Fibrinolytic activity, Fearnley method (lysis of blood coagulum in toto); format: in vivo; details: Oryctolagus cuniculus, ip, 0.5 h, percent decrease of coagulum weight after 30 minutes at 37° C.; 25 mg/kg intraperitoneal, rabbits; read-out: fibrinolytic activity (FL)
Procedure: Determination of the fibrinolytic activity
The determination of the fibrinolytic activity was made following the Fearnley method for the lysis of the blood coagulum in toto.
0.2 ml of blood were withdrawn from the marginal vein of the ear of rabbits treated in the same way as the previously described tests, before and after an intraperitoneal injection of the compounds under test at a dose level of 25 mg/kg for each compound.
The blood samples were placed in test tubes containing 1.7 ml of phosphate buffer at pH 7.4 and 0.1 ml of thrombin (Roche Topostasin ® per os) at 50 units NIH/ml, and maintained in an ice bath. The test tubes were maintained at said temperature for 30 minutes and thereupon were transferred to a temperature controlled water bath at 37° C.
The fibrinolytic activity was determined as a percent decrease of the coagulum weight, measured after incubation for 30 minutes at 37° C.
as §4

[6] = test system: platelet aggregation induced by thrombin; experiment: Platelet aggregation inhibitory activity in vivo (Born aggregometer), thrombin-induced; parameters: species or system New Zealand rabbits; details: Oryctolagus cuniculus, Platelet, ip, dose for 50% inhibition of thrombin-induced aggregation curve; rabbits, intraperitoneal, blood 2, 4 and 6 hours after injection; read-out: platelet antiaggregant activity (AAP), DI50, Thrombin
Procedure: as §1, §2, §3, §4

COc1c(Cl)cc(C(=O)NCc2cccnc2)cc1C(=O)NCc1cccnc1 [Example 23]
ED50 [1]: 63.4 mg/kg
change in vivo at 25 mg/kg [2]: 12.2%
inhibition in vivo at 20 mg/kg [3]: 22.5%
LD50 at 168 h [4]: 425 mg/kg
fibrinolytic activity (percent decrease of coagulum weight) at 25 mg/kg [5]: 16.8%
ED50 [6]: 46.9 mg/kg

CCCCN(Cc1cccnc1)C(=O)c1ccc(OC)c(C(=O)N(CCCC)Cc2cccnc2)c1 [Example 42]
ED50 [1]: 66.4 mg/kg
change in vivo at 25 mg/kg [2]: 14.5%
inhibition in vivo at 20 mg/kg [3]: 28.7%
LD50 at 168 h [4]: 623 mg/kg
fibrinolytic activity (percent decrease of coagulum weight) at 25 mg/kg [5]: 21.7%
ED50 [6]: 47.2 mg/kg

C=CCOc1ccc(C(=O)NCc2ccncc2)cc1C(=O)NCc1ccncc1 [Example 61]
ED50 [1]: 28.6 mg/kg
change in vivo at 25 mg/kg [2]: 15.6%
inhibition in vivo at 20 mg/kg [3]: 52.8%
LD50 at 168 h [4]: 392 mg/kg
fibrinolytic activity (percent decrease of coagulum weight) at 25 mg/kg [5]: 45%
ED50 [6]: 19.5 mg/kg

C#CCOc1ccc(C(=O)NCc2cccnc2)cc1C(=O)NCc1cccnc1 [Example 22]
ED50 [1]: 36.5 mg/kg
change in vivo at 25 mg/kg [2]: 13.6%
inhibition in vivo at 20 mg/kg [3]: 33.1%
LD50 at 168 h [4]: 382 mg/kg
fibrinolytic activity (percent decrease of coagulum weight) at 25 mg/kg [5]: 29.2%
ED50 [6]: 24.4 mg/kg

C=CCOc1c(Cl)cc(C(=O)NCc2ccncc2)cc1C(=O)NCc1ccncc1 [Example 67]
ED50 [1]: 55.6 mg/kg
change in vivo at 25 mg/kg [2]: 14.6%
inhibition in vivo at 20 mg/kg [3]: 39.8%
LD50 at 168 h [4]: 187 mg/kg
fibrinolytic activity (percent decrease of coagulum weight) at 25 mg/kg [5]: 27.1%
ED50 [6]: 34.2 mg/kg

COc1cc(C(=O)NCc2cccnc2)cc(C(=O)NCc2cccnc2)c1O [Example 33]
ED50 [1]: 58.4 mg/kg
change in vivo at 25 mg/kg [2]: 11.2%
inhibition in vivo at 20 mg/kg [3]: 20.3%
LD50 at 168 h [4]: 570 mg/kg
fibrinolytic activity (percent decrease of coagulum weight) at 25 mg/kg [5]: 15.5%
ED50 [6]: 38.9 mg/kg

CC=COc1c(Cl)cc(C(=O)N(CCCCC)Cc2cccnc2)cc1C(=O)N(CCCCC)Cc1cccnc1 [Example 51]
ED50 [1]: 51.6 mg/kg
change in vivo at 25 mg/kg [2]: 15.7%
inhibition in vivo at 20 mg/kg [3]: 28.2%
LD50 at 168 h [4]: 205 mg/kg
fibrinolytic activity (percent decrease of coagulum weight) at 25 mg/kg [5]: 26.1%
ED50 [6]: 32.4 mg/kg

CC=CCOc1ccc(C(=O)N(C)Cc2cccnc2)cc1C(=O)N(C)Cc1cccnc1 [Example 53]
ED50 [1]: 27.5 mg/kg
change in vivo at 25 mg/kg [2]: 15.1%
inhibition in vivo at 20 mg/kg [3]: 47.9%
LD50 at 168 h [4]: 215 mg/kg
fibrinolytic activity (percent decrease of coagulum weight) at 25 mg/kg [5]: 40.5%
ED50 [6]: 19.6 mg/kg

CC=COc1c(Cl)cc(C(=O)N(CCC(C)C)Cc2cccnc2)cc1C(=O)N(CCC(C)C)Cc1cccnc1 [Example 49]
ED50 [1]: 49 mg/kg
change in vivo at 25 mg/kg [2]: 15.3%
inhibition in vivo at 20 mg/kg [3]: 27.9%
LD50 at 168 h [4]: 193 mg/kg
fibrinolytic activity (percent decrease of coagulum weight) at 25 mg/kg [5]: 21.7%
ED50 [6]: 30.2 mg/kg

CCCCCCOc1ccc(C(=O)NCc2ccncc2)cc1C(=O)NCc1ccncc1 [Example 60]
ED50 [1]: 20.3 mg/kg
change in vivo at 25 mg/kg [2]: 22.2%
inhibition in vivo at 20 mg/kg [3]: 48.6%
LD50 at 168 h [4]: 206 mg/kg
fibrinolytic activity (percent decrease of coagulum weight) at 25 mg/kg [5]: 38.5%
ED50 [6]: 17.5 mg/kg

CC=CCOc1ccc(C(=O)N(C)Cc2ccncc2)cc1C(=O)N(C)Cc1ccncc1 [Example 69]
ED50 [1]: 26.1 mg/kg
change in vivo at 25 mg/kg [2]: 14.2%
inhibition in vivo at 20 mg/kg [3]: 48.7%
LD50 at 168 h [4]: 210 mg/kg
fibrinolytic activity (percent decrease of coagulum weight) at 25 mg/kg [5]: 41.6%
ED50 [6]: 19.3 mg/kg

O=C(NCc1cccnc1)c1cc(C(=O)NCc2cccnc2)c(O)c([N+](=O)[O-])c1 [Example 31]
ED50 [1]: 36.6 mg/kg
change in vivo at 25 mg/kg [2]: 13.6%
inhibition in vivo at 20 mg/kg [3]: 23.1%
LD50 at 168 h [4]: 345 mg/kg
fibrinolytic activity (percent decrease of coagulum weight) at 25 mg/kg [5]: 20.5%
ED50 [6]: 27 mg/kg

COc1cc(C(=O)NCc2cccnc2)cc(C(=O)NCc2cccnc2)c1OC1CCCCC1 [Example 21]
ED50 [1]: 35.8 mg/kg
change in vivo at 25 mg/kg [2]: 12.5%
inhibition in vivo at 20 mg/kg [3]: 32.5%
LD50 at 168 h [4]: 378 mg/kg
fibrinolytic activity (percent decrease of coagulum weight) at 25 mg/kg [5]: 28.3%
ED50 [6]: 24.5 mg/kg

COc1c(Cl)cc(C(=O)N(Cc2ccncc2)C(C)C)cc1C(=O)N(Cc1ccncc1)C(C)C [Example 71]
ED50 [1]: 28.1 mg/kg
change in vivo at 25 mg/kg [2]: 25.6%
inhibition in vivo at 20 mg/kg [3]: 53.9%
LD50 at 168 h [4]: 384 mg/kg
fibrinolytic activity (percent decrease of coagulum weight) at 25 mg/kg [5]: 47.7%
ED50 [6]: 19.6 mg/kg

CC(C)(C)COc1ccc(C(=O)NCc2cccnc2)cc1C(=O)NCc1cccnc1 [Example 34]
ED50 [1]: 35.6 mg/kg
change in vivo at 25 mg/kg [2]: 13.6%
inhibition in vivo at 20 mg/kg [3]: 29.7%
LD50 at 168 h [4]: 351 mg/kg
fibrinolytic activity (percent decrease of coagulum weight) at 25 mg/kg [5]: 22.7%
ED50 [6]: 27.3 mg/kg

CC(C)CCOc1c(Cl)cc(C(=O)NCc2cccnc2)cc1C(=O)NCc1cccnc1 [Example 27]
ED50 [1]: 40 mg/kg
change in vivo at 25 mg/kg [2]: 23.8%
inhibition in vivo at 20 mg/kg [3]: 35.1%
LD50 at 168 h [4]: 195 mg/kg
fibrinolytic activity (percent decrease of coagulum weight) at 25 mg/kg [5]: 28.8%
ED50 [6]: 27.9 mg/kg

CC(C)(C)COc1c(Cl)cc(C(=O)NCc2cccnc2)cc1C(=O)NCc1cccnc1 [Example 28]
ED50 [1]: 45.3 mg/kg
change in vivo at 25 mg/kg [2]: 19.6%
inhibition in vivo at 20 mg/kg [3]: 27.9%
LD50 at 168 h [4]: 215 mg/kg
fibrinolytic activity (percent decrease of coagulum weight) at 25 mg/kg [5]: 25.5%
ED50 [6]: 31 mg/kg
